Laboratory results from ChEMBL document CHEMBL1137616, “Poorly soluble marketed drugs display solvation limited solubility” (J Med Chem, 2007).
Values after ≈ are worked out from the molar mass of the structure shown.

Experiment: Solubility by shake flask method

SMILES	Solubility
CCCSc1ccc2nc(NC(=O)OC)[nH]c2c1 [ALBENDAZOLE]	0.983 µM (≈ 0.261 µg/mL)
COc1ccccc1OCCNCC(O)COc1cccc2[nH]c3ccccc3c12 (configuration not stated) [CARVEDILOL]	0.713 µM (≈ 0.29 µg/mL)
CCOC(=O)C1=C(C)NC(C)=C(C(=O)OC)C1c1cccc(Cl)c1Cl (configuration not stated) [FELODIPINE]	0.276 µM (≈ 0.106 µg/mL)
CCC1=C(C)CN(C(=O)NCCc2ccc(S(=O)(=O)NC(=O)N[C@H]3CC[C@H](C)CC3)cc2)C1=O [GLIMEPIRIDE]	0.0127 µM (≈ 0.00623 µg/mL)
CC(C)(C)c1ccc(C(O)CCCN2CCC(C(O)(c3ccccc3)c3ccccc3)CC2)cc1 (configuration not stated) [TERFENADINE]	0.0116 µM (≈ 0.00547 µg/mL)
Cc1c(C)c2c(c(C)c1O)CCC(C)(COc1ccc(CC3SC(=O)NC3=O)cc1)O2 (configuration not stated) [TROGLITAZONE]	< 0.0159 µM

Second part, the compound after the results:

Solubility	SMILES
0.0668 µM (≈ 0.0306 µg/mL)	COc1ccc(CCN2CCC(Nc3nc4ccccc4n3Cc3ccc(F)cc3)CC2)cc1 [ASTEMIZOLE]
0.0891 µM (≈ 0.044 µg/mL)	COc1ccc(Cl)cc1C(=O)NCCc1ccc(S(=O)(=O)NC(=O)NC2CCCCC2)cc1 [GLYBURIDE]
1.1333 µM (≈ 0.405 µg/mL)	COc1ccc2c(c1)c(CC(=O)O)c(C)n2C(=O)c1ccc(Cl)cc1 [INDOMETHACIN]
0.0033 µM (≈ 0.00233 µg/mL)	CCC(C)n1ncn(-c2ccc(N3CCN(c4ccc(OCC5COC(Cn6cncn6)(c6ccc(Cl)cc6Cl)O5)cc4)CC3)cc2)c1=O (configuration not stated) [ITRACONAZOLE]
0.0965 µM (≈ 0.0448 µg/mL)	Cc1c(C(=O)NN2CCCCC2)nn(-c2ccc(Cl)cc2Cl)c1-c1ccc(Cl)cc1 [RIMONABANT]
0.0136 µM (≈ 0.00356 µg/mL)	Cc1c(Cl)cccc1Nc1ccccc1C(=O)O [TOLFENAMIC ACID]
